Results on five compounds are retold here after publication PMC6372602, “On-target and off-target effects of novel orthosteric and allosteric activators of GPR84” (Scientific Reports, 2019).

In assay [1] the target is T1, mouse GPR84 (RAW264.7 cells) (Mus musculus, UniProt Q8CIM5). Put plainly: […]GTPγS binding, membranes. The conditions noted are these: agonist, LPS-treated cells, […] °C, pH […] GDP. It counts as biochemical. For orientation: Binding of GTPγS marks nucleotide exchange on a G protein.
T1 sequence (Q8CIM5 whole entry): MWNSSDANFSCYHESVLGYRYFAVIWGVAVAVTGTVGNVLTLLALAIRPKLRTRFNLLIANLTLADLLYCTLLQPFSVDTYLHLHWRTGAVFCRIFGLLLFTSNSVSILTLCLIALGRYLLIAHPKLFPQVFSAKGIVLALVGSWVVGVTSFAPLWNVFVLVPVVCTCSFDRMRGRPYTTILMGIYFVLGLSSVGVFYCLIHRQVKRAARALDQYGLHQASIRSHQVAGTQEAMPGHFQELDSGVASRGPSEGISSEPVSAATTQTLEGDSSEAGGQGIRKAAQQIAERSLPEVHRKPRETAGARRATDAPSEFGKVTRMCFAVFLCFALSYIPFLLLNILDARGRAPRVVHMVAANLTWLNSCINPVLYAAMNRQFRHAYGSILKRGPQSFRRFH
The target in assay [2] is T2, mouse GPR84-Gαi2 (Mus musculus, UniProt Q8CIM5).
T2 construct: N-terminal FLAG-tagged mouse GPR84 fused to Gαi2 (transducer / reporter; silent C636T in Gαi2); doxycycline-inducible Flp-In T-REx 293 cells; membranes
The assay is described as follows: […]GTPγS binding, membranes. The conditions noted are these: […] °C, pH […] GDP. It counts as biochemical.

In a further assay the target is T3, mouse GPR35 (Mus musculus, UniProt Q9ES90).
T3 construct: C-terminal eYFP tag, HEK293 cells co-transfected with luciferase-tagged β-arrestin-2
T3 sequence (Q9ES90 whole entry): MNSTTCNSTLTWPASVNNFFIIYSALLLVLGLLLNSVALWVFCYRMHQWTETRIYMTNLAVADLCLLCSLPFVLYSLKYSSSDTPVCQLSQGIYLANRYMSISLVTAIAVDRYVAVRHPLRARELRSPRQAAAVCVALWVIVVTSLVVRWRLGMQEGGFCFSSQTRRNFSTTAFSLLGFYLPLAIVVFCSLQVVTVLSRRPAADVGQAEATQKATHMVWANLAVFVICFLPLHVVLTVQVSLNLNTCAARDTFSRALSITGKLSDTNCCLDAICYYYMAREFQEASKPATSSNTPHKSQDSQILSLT
Put plainly: β-arrestin-2 recruitment BRET, HEK293 cells. The settings on record: agonist mode. It counts as cell-based. For orientation: Recruitment of arrestin is a read-out of receptor activation apart from second messengers.

For assay [3], the target named is T4, human GPR84-Gαi2 (Homo sapiens, UniProt Q9NQS5).
T4 construct: doxycycline-inducible Flp-In T-REx 293 cells; membranes
T4 sequence (Q9NQS5 whole entry): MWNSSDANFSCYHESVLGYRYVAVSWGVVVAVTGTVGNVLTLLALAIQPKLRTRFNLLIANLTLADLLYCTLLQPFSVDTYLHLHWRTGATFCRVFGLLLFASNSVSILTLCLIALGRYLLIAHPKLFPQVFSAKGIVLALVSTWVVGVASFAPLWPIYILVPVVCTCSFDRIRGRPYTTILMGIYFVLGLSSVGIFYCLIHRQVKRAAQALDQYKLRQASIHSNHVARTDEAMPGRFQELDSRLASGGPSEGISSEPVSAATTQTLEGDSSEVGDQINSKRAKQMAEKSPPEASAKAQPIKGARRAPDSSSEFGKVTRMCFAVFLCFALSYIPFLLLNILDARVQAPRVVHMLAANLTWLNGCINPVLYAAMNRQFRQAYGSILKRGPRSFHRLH
Put plainly: […]GTPγS binding, membranes. It counts as biochemical. The conditions noted are these: partial agonist, allosteric; […] °C, pH […] GDP.

Assay [4] concerns the target T5, GPR84 (THP-1 cells) (Homo sapiens, UniProt Q9NQS5).
T5 construct: endogenous receptor in membranes of LPS-treated THP-1 monocytes
Put plainly: saturation radioligand binding, membranes. The settings on record: labelled compound; antagonist; LPS-treated cells; […] °C, pH […].

The target of assay [5] is T5, GPR84 (THP-1 cells). Put plainly: inhibition of agonist-stimulated […]GTPγS binding, membranes. It counts as biochemical. The settings on record: antagonist, non-competitive; LPS-treated cells; versus EC80 2-HTP.
In assay [6] the target is T4, human GPR84-Gαi2. Described as above. The conditions noted are these: antagonist, non-competitive; versus EC80 2-HTP. It counts as biochemical.
Assay [7] deals with T2, mouse GPR84-Gαi2. The assay is described as above. It counts as biochemical. The conditions noted are these: antagonist; versus EC80 2-HTP.
The target in assay [8] is T1, mouse GPR84 (RAW264.7 cells). Described as above. It counts as biochemical. The settings on record: antagonist; LPS-treated cells; versus EC80 2-HTP.
The target of a further assay is T6, human GPR35a (Homo sapiens, UniProt Q9HC97).
T6 construct: gene GPR35; C-terminal eYFP tag, HEK293 cells co-transfected with luciferase-tagged β-arrestin-2
T6 sequence (Q9HC97 whole entry): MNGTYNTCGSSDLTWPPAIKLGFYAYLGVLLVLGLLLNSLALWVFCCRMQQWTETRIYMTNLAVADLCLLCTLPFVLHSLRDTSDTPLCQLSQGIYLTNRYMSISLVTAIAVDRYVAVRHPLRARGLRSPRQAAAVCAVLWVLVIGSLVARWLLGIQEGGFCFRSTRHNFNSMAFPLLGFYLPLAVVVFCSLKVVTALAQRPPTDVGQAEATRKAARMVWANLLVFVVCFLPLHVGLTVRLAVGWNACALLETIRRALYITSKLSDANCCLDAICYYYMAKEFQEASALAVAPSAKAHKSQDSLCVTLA
The assay is described as follows: β-arrestin-2 recruitment BRET, HEK293 cells. It counts as cell-based. The conditions noted are these: agonist mode.

T5 sequence (Q9NQS5 whole entry): as the sequence (Q9NQS5 whole entry) above

As for `Fc1cc(F)c2[nH]cc(Cc3c[nH]c4c(F)cc(F)cc34)c2c1` [PSB-16671, di(5,7-difluoro-1H-indole-3-yl)methane], the pEC50 (commonly the EC50 on a negative log10 scale, so that one unit is a factor of ten) in [1] (allosteric) stood at 6.75 ± 0.10; on mouse GPR84-Gαi2 [2] (agonist, allosteric), 6.53 ± 0.07. The “β-arrestin-2 recruitment BRET, HEK293 cells” value on mouse GPR35 is “neither PSB-16671 nor 2-HTP was able to activate mouse GPR35”.
In turn, `c1ccc2c(Cc3c[nH]c4ccccc34)c[nH]c2c1` [DIM] gave a pEC50 on mouse GPR84-Gαi2 [2] (partial agonist, allosteric) of 5.37 ± 0.08. In addition, the EC50 result at human GPR84-Gαi2 [3] was “Equivalent studies using DIM confirmed the higher potency of PSB-16671”.
Turning to [^3H]9543, binding on GPR84 (THP-1 cells) [4] was put at a Kd of 0.18 ± 0.02 nM.
For the compound `O=c1nc(OCC2COCCO2)cc2n1CCc1cc(C#CCNc3ccccc3)ccc1-2` (centres unmarked) [compound 107, 2-([1,4]dioxan-2-ylmethoxy)-9-(3-phenylamino-prop-1-ynyl)-6,7-dihydro-pyrimido[6,1-a]isoquinolin-4-one], the pIC50 (as a rule, −log10 of the IC50, conventionally taken in molar units) is recorded as 7.86 ± 0.02 on GPR84 (THP-1 cells) [5], 8.14 ± 0.06 on human GPR84-Gαi2 [6], 6.90 ± 0.05 at mouse GPR84-Gαi2 [7] and 6.50 ± 0.06 in [8].
With `CCCCCCSc1nc(O)cc(O)n1` [2-HTP, 2-(hexylthiol)pyrimidine-4,6 diol], the “β-arrestin-2 recruitment BRET, HEK293 cells” value was 2-HTP was also unable to activate human GPR35 at human GPR35a and “neither PSB-16671 nor 2-HTP was able to activate mouse GPR35” at mouse GPR35. For the same compound, the negative logarithm of the EC50 (pEC50) in assay [1] stood at 7.58 ± 0.08; at mouse GPR84-Gαi2 [2] (agonist) it was 7.52 ± 0.11.
